Legend:
[1] = molecular target: Receptor-interacting serine/threonine-protein kinase 4 (Homo sapiens) (UniProt P57078); details: Compound concentration 1000.0 nM
[2] = molecular target: Cyclin-dependent kinase 11A (Homo sapiens) (UniProt Q9UQ88); details: Compound concentration 1000.0 nM
[3] = molecular target: Cyclin-dependent kinase 9 (Homo sapiens) (UniProt P50750); details: Compound concentration 1000.0 nM
[4] = molecular target: Cyclin-dependent kinase 4 (Homo sapiens) (UniProt P11802); details: Compound concentration 1000.0 nM
[5] = molecular target: Ribosomal protein S6 kinase alpha-3 (Homo sapiens) (UniProt P51812); details: Compound concentration 1000.0 nM
[6] = molecular target: Tyrosine-protein kinase JAK2 (Homo sapiens) (UniProt O60674); details: Compound concentration 1000.0 nM
Tyrosine-protein kinase JAK2 (Homo sapiens), sequence (O60674 whole entry): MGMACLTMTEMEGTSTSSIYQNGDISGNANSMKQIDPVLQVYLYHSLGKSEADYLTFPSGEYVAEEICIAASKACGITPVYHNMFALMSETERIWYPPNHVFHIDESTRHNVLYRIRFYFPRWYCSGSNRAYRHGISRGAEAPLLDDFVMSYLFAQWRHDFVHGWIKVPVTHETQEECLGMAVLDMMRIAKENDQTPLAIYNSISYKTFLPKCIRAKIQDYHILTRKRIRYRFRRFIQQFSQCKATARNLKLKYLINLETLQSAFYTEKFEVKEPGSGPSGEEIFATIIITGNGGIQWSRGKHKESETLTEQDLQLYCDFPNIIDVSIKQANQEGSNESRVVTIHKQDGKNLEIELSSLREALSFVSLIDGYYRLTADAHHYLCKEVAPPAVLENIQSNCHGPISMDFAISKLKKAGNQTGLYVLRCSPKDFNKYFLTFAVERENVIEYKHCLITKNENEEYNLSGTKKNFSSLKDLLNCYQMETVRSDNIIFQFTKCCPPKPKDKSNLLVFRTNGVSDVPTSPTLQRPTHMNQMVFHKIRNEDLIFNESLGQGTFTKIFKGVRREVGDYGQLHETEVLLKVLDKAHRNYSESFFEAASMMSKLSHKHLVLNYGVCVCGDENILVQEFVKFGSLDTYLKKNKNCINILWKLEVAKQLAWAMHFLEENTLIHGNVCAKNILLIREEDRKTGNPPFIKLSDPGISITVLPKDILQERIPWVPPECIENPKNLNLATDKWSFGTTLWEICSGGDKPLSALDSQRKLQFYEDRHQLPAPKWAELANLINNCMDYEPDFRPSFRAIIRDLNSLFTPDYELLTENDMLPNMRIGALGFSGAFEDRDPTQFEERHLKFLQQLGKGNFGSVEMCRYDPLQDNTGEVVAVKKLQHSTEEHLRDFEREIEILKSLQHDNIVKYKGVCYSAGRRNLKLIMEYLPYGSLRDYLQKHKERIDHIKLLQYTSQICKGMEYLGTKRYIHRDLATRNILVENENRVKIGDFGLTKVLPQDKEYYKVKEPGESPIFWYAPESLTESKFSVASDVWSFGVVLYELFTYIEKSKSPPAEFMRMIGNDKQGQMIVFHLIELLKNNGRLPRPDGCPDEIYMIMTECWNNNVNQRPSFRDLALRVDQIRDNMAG

[7] = molecular target: Serine/threonine-protein kinase PknB (Mycobacterium tuberculosis) (UniProt P9WI81); details: Compound concentration 1000.0 nM
[8] = molecular target: Serine/threonine-protein kinase Nek6 (Homo sapiens) (UniProt Q9HC98); details: Compound concentration 1000.0 nM
[9] = molecular target: Activin receptor type-1-like (Homo sapiens) (UniProt P37023); details: Compound concentration 1000.0 nM
[10] = molecular target: Serine/threonine-protein kinase NIM1 (Homo sapiens) (UniProt Q8IY84); details: Compound concentration 1000.0 nM
[11] = molecular target: Serine/threonine-protein kinase 17B (Homo sapiens) (UniProt O94768); details: Compound concentration 1000.0 nM
[12] = molecular target: Serine/threonine-protein kinase MARK1 (Homo sapiens) (UniProt Q9P0L2); details: Compound concentration 1000.0 nM
[13] = molecular target: Fibroblast growth factor receptor 4 (Homo sapiens) (UniProt P22455); details: Compound concentration 1000.0 nM
[14] = test system: Tyrosine-protein kinase ABL1 (Homo sapiens), P00519 [Q252H]; details: Compound concentration 1000.0 nM
[15] = test system: Hepatocyte growth factor receptor (Homo sapiens), P08581 [M1250T]; details: Compound concentration 1000.0 nM
[16] = molecular target: Calcium/calmodulin-dependent protein kinase kinase 2 (Homo sapiens) (UniProt Q96RR4); details: Compound concentration 1000.0 nM
[17] = molecular target: Histamine H2 receptor (Homo sapiens) (UniProt P25021); details: Compound concentration 10.0 uM
[18] = molecular target: Serine/threonine-protein kinase 36 (Homo sapiens) (UniProt Q9NRP7); details: Compound concentration 1000.0 nM
[19] = molecular target: Serine/threonine-protein kinase DCLK3 (Homo sapiens) (UniProt Q9C098); details: Compound concentration 1000.0 nM
[20] = molecular target: Serine/threonine-protein kinase BRSK2 (Homo sapiens) (UniProt Q8IWQ3); details: Compound concentration 1000.0 nM
[21] = molecular target: Serine/threonine-protein kinase Nek2 (Homo sapiens) (UniProt P51955); details: Compound concentration 1000.0 nM
[22] = molecular target: Hormonally up-regulated neu tumor-associated kinase (Homo sapiens) (UniProt P57058); details: Compound concentration 1000.0 nM
[23] = molecular target: Phosphatidylinositol 4-phosphate 3-kinase C2 domain-containing subunit beta (Homo sapiens) (UniProt O00750); details: Compound concentration 1000.0 nM
[24] = test system: Serine/threonine-protein kinase B-raf (Homo sapiens), P15056 [V600E]; details: Compound concentration 1000.0 nM
[25] = molecular target: Insulin receptor-related protein (Homo sapiens) (UniProt P14616); details: Compound concentration 1000.0 nM
[26] = molecular target: Death-associated protein kinase 3 (Homo sapiens) (UniProt O43293); details: Compound concentration 1000.0 nM
Death-associated protein kinase 3 (Homo sapiens), sequence (O43293 whole entry, looked up): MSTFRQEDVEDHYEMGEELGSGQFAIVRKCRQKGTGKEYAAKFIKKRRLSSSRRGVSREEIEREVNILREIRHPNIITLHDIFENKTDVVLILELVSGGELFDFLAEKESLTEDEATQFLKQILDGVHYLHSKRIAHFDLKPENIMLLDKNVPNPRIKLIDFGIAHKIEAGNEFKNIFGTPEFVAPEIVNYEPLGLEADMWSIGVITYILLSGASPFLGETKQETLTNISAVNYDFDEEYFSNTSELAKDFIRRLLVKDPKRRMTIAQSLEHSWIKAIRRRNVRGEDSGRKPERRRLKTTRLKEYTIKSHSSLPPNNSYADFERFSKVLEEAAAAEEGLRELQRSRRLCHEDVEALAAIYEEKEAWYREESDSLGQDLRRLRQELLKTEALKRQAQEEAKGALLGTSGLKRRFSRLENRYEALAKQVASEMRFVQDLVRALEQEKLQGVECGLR

[27] = molecular target: Platelet-derived growth factor receptor alpha (Homo sapiens) (UniProt P16234); details: Compound concentration 1000.0 nM
Platelet-derived growth factor receptor alpha (Homo sapiens), sequence (P16234 whole entry): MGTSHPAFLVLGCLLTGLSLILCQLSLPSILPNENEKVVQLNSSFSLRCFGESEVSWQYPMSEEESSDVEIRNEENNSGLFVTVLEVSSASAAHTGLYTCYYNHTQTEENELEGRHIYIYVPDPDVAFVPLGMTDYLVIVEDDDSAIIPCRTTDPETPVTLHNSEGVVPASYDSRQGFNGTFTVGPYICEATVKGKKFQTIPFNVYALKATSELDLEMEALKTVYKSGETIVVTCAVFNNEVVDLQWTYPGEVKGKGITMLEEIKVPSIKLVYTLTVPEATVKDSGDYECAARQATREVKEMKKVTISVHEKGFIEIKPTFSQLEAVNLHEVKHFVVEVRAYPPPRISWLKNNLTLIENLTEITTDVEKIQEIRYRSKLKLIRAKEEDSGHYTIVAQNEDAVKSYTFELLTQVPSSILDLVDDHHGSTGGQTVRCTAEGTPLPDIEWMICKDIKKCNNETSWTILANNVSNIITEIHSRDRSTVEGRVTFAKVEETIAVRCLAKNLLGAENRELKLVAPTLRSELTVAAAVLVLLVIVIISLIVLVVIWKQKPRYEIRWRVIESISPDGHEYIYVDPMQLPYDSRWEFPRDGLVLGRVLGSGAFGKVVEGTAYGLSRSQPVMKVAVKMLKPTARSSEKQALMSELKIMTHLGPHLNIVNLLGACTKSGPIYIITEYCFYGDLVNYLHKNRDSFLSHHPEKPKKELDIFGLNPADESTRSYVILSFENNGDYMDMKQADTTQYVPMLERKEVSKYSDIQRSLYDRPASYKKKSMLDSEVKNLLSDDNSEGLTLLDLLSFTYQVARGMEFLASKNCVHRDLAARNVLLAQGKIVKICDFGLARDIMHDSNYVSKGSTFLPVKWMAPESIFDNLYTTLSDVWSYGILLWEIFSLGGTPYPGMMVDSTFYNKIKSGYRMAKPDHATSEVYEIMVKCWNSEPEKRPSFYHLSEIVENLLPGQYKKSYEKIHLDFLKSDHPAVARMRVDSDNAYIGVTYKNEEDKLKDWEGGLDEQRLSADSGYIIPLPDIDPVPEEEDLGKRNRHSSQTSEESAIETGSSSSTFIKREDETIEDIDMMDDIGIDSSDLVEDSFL

[28] = molecular target: Ephrin type-A receptor 4 (Homo sapiens) (UniProt P54764); details: Compound concentration 1000.0 nM
[29] = molecular target: Phosphatidylinositol 4,5-bisphosphate 3-kinase catalytic subunit gamma isoform (Homo sapiens) (UniProt P48736); details: Compound concentration 1000.0 nM
[30] = molecular target: Mitogen-activated protein kinase 14 (Homo sapiens) (UniProt Q16539); details: Compound concentration 1000.0 nM
[31] = molecular target: Non-receptor tyrosine-protein kinase TYK2 (Homo sapiens) (UniProt P29597); details: Compound concentration 1000.0 nM
Non-receptor tyrosine-protein kinase TYK2 (Homo sapiens), sequence (P29597 whole entry): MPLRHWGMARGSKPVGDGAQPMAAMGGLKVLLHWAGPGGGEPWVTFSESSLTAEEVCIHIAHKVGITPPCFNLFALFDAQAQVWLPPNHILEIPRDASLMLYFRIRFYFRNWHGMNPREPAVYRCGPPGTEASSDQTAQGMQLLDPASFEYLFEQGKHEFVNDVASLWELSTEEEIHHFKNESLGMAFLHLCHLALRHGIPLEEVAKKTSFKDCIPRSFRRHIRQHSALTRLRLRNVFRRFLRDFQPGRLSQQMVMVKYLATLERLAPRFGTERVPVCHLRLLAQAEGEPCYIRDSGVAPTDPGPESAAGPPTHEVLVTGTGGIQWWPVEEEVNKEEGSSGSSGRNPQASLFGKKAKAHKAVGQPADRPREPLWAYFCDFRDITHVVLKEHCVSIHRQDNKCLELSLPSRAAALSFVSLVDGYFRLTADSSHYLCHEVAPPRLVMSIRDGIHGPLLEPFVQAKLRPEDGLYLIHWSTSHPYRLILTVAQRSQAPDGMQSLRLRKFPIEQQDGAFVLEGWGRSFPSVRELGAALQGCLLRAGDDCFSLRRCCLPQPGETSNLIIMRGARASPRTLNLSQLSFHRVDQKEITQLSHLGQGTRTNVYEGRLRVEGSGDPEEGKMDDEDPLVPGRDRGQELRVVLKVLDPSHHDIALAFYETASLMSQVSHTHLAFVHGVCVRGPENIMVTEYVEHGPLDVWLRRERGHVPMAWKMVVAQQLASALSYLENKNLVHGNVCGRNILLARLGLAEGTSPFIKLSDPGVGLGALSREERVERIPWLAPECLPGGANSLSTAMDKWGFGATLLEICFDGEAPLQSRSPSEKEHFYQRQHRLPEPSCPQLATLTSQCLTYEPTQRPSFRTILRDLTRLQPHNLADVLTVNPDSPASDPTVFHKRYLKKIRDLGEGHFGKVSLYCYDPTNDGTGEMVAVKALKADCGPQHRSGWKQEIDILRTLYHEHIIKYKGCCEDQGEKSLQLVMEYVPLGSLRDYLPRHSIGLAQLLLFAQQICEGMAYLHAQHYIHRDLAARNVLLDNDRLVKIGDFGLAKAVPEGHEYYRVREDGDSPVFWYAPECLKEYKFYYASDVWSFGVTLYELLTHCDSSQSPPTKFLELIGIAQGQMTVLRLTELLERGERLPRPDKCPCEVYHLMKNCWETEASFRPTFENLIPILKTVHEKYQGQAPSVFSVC

[32] = molecular target: Serine/threonine-protein kinase 4 (Homo sapiens) (UniProt Q13043); details: Compound concentration 1000.0 nM
[33] = molecular target: Dual specificity protein kinase TTK (Homo sapiens) (UniProt P33981); details: Compound concentration 1000.0 nM
[34] = molecular target: Discoidin domain-containing receptor 2 (Homo sapiens) (UniProt Q16832); details: Compound concentration 1000.0 nM
[35] = molecular target: Mitogen-activated protein kinase kinase kinase kinase 1 (Homo sapiens) (UniProt Q92918); details: Compound concentration 1000.0 nM
[36] = molecular target: Serine/threonine-protein kinase MRCK alpha (Homo sapiens) (UniProt Q5VT25); details: Compound concentration 1000.0 nM
[37] = molecular target: Serine/threonine-protein kinase BRSK1 (Homo sapiens) (UniProt Q8TDC3); details: Compound concentration 1000.0 nM
[38] = molecular target: 5'-AMP-activated protein kinase catalytic subunit alpha-2 (Homo sapiens) (UniProt P54646); details: Compound concentration 1000.0 nM
5'-AMP-activated protein kinase catalytic subunit alpha-2 (Homo sapiens), sequence (P54646 whole entry, looked up, the tested form may be a part): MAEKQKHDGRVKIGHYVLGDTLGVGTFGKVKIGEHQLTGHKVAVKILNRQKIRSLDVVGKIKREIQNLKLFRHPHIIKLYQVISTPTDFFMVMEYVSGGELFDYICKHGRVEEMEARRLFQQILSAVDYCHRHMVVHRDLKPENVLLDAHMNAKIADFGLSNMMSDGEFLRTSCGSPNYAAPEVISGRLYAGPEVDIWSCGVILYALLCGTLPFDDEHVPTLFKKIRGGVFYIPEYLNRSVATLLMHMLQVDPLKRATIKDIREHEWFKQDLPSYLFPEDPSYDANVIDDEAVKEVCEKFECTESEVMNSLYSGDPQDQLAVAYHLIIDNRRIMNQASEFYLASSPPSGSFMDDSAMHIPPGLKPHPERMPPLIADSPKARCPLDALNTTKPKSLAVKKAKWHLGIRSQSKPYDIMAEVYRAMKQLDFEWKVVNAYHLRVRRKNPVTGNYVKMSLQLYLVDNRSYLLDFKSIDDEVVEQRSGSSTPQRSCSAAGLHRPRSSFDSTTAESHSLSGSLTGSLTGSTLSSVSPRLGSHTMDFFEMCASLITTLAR

[39] = molecular target: Phosphatidylinositol 3-kinase C2 domain-containing subunit gamma (Homo sapiens) (UniProt O75747); details: Compound concentration 1000.0 nM
[40] = test system: eIF-2-alpha kinase GCN2 (Homo sapiens), Q9P2K8 [S808G]; details: Compound concentration 1000.0 nM
[41] = test system: Tyrosine-protein kinase ABL1 (Homo sapiens), P00519 [Q252H]; details: Compound concentration 1000.0 nM; remark: listed apart in the source
[42] = test system: Epidermal growth factor receptor (Homo sapiens), P00533 [T790M]; details: Compound concentration 1000.0 nM
[43] = molecular target: Non-receptor tyrosine-protein kinase TYK2 (Homo sapiens) (UniProt P29597); details: Compound concentration 1000.0 nM; remark: listed apart in the source
[44] = test system: Epidermal growth factor receptor (Homo sapiens), P00533 [G719S]; details: Compound concentration 1000.0 nM
[45] = molecular target: Ribosomal protein S6 kinase alpha-1 (Homo sapiens) (UniProt Q15418); details: Compound concentration 1000.0 nM

Cyclin-dependent kinase 9 (Homo sapiens), sequence (P50750 whole entry): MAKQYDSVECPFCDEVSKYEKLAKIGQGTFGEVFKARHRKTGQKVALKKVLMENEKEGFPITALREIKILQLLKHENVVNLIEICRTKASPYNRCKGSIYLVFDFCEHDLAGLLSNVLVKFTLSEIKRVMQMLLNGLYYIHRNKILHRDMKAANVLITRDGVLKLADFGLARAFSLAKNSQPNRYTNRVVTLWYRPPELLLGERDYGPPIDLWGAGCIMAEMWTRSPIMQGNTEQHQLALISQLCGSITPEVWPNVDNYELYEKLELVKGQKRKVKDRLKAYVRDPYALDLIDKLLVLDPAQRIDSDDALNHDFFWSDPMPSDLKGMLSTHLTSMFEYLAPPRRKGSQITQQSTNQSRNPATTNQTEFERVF

CC(=O)C1=C(C)N(c2cccc(C(F)(F)F)c2)C(=O)N[C@@H]1c1ccc(C#N)nc1 [BAY-678]
inactive: residual activity [1] 100% | residual activity [2] 95.7% | residual activity [3] 100% | residual activity [4] 100% | residual activity [5] 100% | residual activity [6] 87.1% | residual activity [7] 82.7% | residual activity [8] 100% | residual activity [9] 71.7% | residual activity [10] 83.5% | residual activity [11] 100% | residual activity [12] 100% | residual activity [13] 100% | residual activity [14] 94.3% | residual activity [15] 100% | residual activity [16] 100% | inhibition [17] 14.5% | residual activity [18] 100% | residual activity [19] 53.9% | residual activity [20] 100% | residual activity [21] 100% | residual activity [22] 80.1% | residual activity [23] 100% | residual activity [24] 100% | residual activity [25] 99.6% | residual activity [26] 83.8% | residual activity [27] 100% | residual activity [28] 100% | residual activity [29] 100% | residual activity [30] 100% | residual activity [31] 91.3% | residual activity [32] 97.5% | residual activity [33] 97.9% | residual activity [34] 87.6% | residual activity [35] 100% | residual activity [36] 100% | residual activity [37] 100% | residual activity [38] 80.4% | residual activity [39] 78.2% | residual activity [40] 56.9% | residual activity [41] 100% | residual activity [42] 67.2% | residual activity [43] 94.9% | residual activity [44] 100% | residual activity [45] 91.5%
